Experimental findings from ChEMBL document CHEMBL1133333, “Structural comparison between type I and type II antagonists: possible implications in the drug design of AT1 antagonists” (Bioorg Med Chem Lett, 2000) are described below.

By pA2 is commonly meant a measure of antagonist potency on a negative log scale. Lower therefore signals lower antagonist potency.

Structures are written as SMILES. A value given as a limit tells only on which side of the number the result lay.

For the test, the target named is T1, Angiotensin II receptor (AT-1) type-1 (Rattus norvegicus, UniProt P29089+P25095).
T1 sequence (P29089 whole entry): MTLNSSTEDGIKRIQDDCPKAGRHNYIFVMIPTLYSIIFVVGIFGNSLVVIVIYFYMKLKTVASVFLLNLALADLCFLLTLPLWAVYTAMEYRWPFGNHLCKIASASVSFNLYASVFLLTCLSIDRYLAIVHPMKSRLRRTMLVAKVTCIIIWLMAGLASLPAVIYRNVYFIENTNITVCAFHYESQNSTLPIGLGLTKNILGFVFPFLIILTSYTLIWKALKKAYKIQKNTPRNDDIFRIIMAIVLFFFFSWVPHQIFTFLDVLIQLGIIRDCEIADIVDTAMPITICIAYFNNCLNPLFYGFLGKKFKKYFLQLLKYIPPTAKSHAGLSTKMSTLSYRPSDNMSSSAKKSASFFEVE
T1 sequence (P25095 whole entry): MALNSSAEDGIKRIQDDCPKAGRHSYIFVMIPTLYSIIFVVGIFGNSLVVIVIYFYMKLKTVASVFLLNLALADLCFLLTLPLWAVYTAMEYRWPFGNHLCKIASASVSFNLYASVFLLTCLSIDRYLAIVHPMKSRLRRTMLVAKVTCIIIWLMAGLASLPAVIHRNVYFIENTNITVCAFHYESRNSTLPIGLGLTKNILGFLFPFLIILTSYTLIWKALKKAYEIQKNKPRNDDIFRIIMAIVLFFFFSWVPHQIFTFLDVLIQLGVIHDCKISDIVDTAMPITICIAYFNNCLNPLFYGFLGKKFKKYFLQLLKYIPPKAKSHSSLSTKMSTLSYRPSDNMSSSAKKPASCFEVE
The experiment in a line: Antagonistic activity against Angiotensin II receptor type 1 in rat uterus. It counts as functional, tissue-based.

Regarding `CC[C@H](C)[C@H](NC(=O)[C@H](Cc1ccc(OC)cc1)NC(=O)[C@@H](NC(=O)[C@H](CCCN=C(N)N)NC(=O)CNC)C(C)C)C(=O)N[C@@H](Cc1c[nH]cn1)C(=O)N1CCC[C@H]1C(=O)N[C@@H](CCO)C(=O)O`, the pA2 was found to be 5.7.

For the compound `CC[C@H](C)[C@H](NC(=O)[C@H](Cc1ccc(O)cc1)NC(=O)[C@@H](NC(=O)[C@H](CCCN=C(N)N)NC(=O)[C@@H](N)CC(=O)O)C(C)C)C(=O)N[C@@H](Cc1c[nH]cn1)C(=O)N1CCC[C@H]1C(=O)N[C@@H](CCO)C(=O)O`, the pA2 came to 6.7.

As to `CC[C@H](C)[C@H](NC(=O)[C@H](Cc1ccc(OC)cc1)NC(=O)[C@@H](NC(=O)[C@H](CCCN=C(N)N)NC(=O)CNC)C(C)C)C(=O)N[C@@H](Cc1c[nH]cn1)C(=O)N1CCC[C@H]1C(=O)N[C@@H](Cc1ccccc1)C(=O)O`, the pA2 was found to be 7.5.

Take `CC[C@H](C)[C@H](NC(=O)[C@@H]1CCCN1C(=O)[C@H](Cc1c[nH]cn1)NC(=O)[C@@H](NC(=O)[C@H](Cc1ccc(OC)cc1)NC(=O)[C@@H](NC(=O)[C@H](CCCN=C(N)N)NC(=O)CNC)C(C)C)[C@@H](C)CC)C(=O)O`: the pA2 came to 6.6.

`CC[C@H](C)[C@H](NC(=O)[C@H](Cc1ccc(OC)cc1)NC(=O)[C@@H](NC(=O)[C@H](CCCN=C(N)N)NC(=O)[C@@H](N)CC(=O)O)C(C)C)C(=O)N[C@@H](Cc1c[nH]cn1)C(=O)N1CCC[C@H]1C(=O)N[C@@H](CCO)C(=O)O`: the pA2 turned out to be 5.4.

Consider `CC[C@H](C)[C@H](NC(=O)[C@H](Cc1ccc(OC)cc1)NC(=O)[C@@H](NC(=O)[C@@H](N)CCCN=C(N)N)C(C)C)C(=O)N[C@@H](Cc1c[nH]cn1)C(=O)N1CCC[C@H]1C(=O)N[C@@H](CCO)C(=O)O`, for which the pA2 was less than 4.8.

For the compound `CC[C@H](C)[C@H](NC(=O)[C@H](Cc1ccc(O)cc1)NC(=O)[C@@H](NC(=O)[C@@H](N)CCCN=C(N)N)C(C)C)C(=O)N[C@@H](Cc1c[nH]cn1)C(=O)N1CCC[C@H]1C(=O)N[C@@H](CCO)C(=O)O`, the pA2 was less than 4.8.

`CC[C@H](C)[C@H](NC(=O)[C@H](Cc1ccc(O)cc1)NC(=O)[C@@H](NC(=O)[C@H](CCCN=C(N)N)NC(=O)CNC)C(C)C)C(=O)N[C@@H](Cc1c[nH]cn1)C(=O)N1CCC[C@H]1C(=O)N[C@@H](CCO)C(=O)O` registered a pA2 of 7.8.
